Laboratory results published in ChEMBL document CHEMBL4393679, “Structure-Guided Drug Design of 6-Substituted Adenosine Analogues as Potent Inhibitors of Mycobacterium tuberculosis Adenosine Kinase” (J Med Chem, 2019).

Tests used:
Type in all cases: functional
[1] = test system: Mycobacterium tuberculosis; assay: Antimycobacterial activity against Mycobacterium tuberculosis H37Rv harboring Q172P mutant by microplate alamar blue assay
[2] = test system: Mycobacterium tuberculosis; assay: Antimycobacterial activity against Mycobacterium tuberculosis H37Rv harboring G262S mutant by microplate alamar blue assay
[3] = test system: Mycobacterium tuberculosis; assay: Antimycobacterial activity against Mycobacterium tuberculosis H37Rv harboring D251N mutant by microplate alamar blue assay

Measured: MIC

Nc1ncnc2c1c(I)cn2[C@@H]1O[C@H](CO)[C@@H](O)[C@H]1O [IODOTUBERCIDIN]
>100 µM: all assays above
